Assay results published in patent publication US12077503B2, “Substituted cyclic amides and their use as herbicides” (FMC CORPORATION, priority 2015, dated 2024).

Assays:
Type in all cases: in vivo
[1] = test system: ivy-leaved morning glory (Ipomoea hederacea); assay: Test G Post-Emergence Protocol; conditions: Ipomoea, post-emergence, 312 h, read-out: Morningglory, Ivy-leaved damage rating; for pest or weed control at 15.625 g/ha: 15.625 g ai/ha, evaluated after 13 days (100=total damage to plant; 0=no damage to plant); for pest or weed control at 62.5 g/ha: 62.5 g ai/ha; for pest or weed control at 62.5 g/ha / pest or weed control at 250 g/ha: evaluated after 13 days, 100=total damage to plant, 0=no damage to plant; for pest or weed control at 250 g/ha: 250 g ai/ha
Method in brief: (§1)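 Damage was rated 13 days after treatment from 0 (none) to 100 (plant killed). Compound was applied as a spray at 15.625, 62.5 or 250 g/ha in 50:50 acetone/water containing 0.5% Tween 20, onto 8-day-old potted plants kept in a glasshouse (24/16 °C, 14 h light, 65% humidity).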

[2] = test system: giant foxtail (Setaria faberi); assay: Test G Post-Emergence Protocol; conditions: Setaria faberi, post-emergence, 312 h, read-out: Foxtail, Giant damage rating; for pest or weed control at 15.625 g/ha: 15.625 g ai/ha, evaluated after 13 days (100=total damage to plant; 0=no damage to plant); for pest or weed control at 62.5 g/ha: 62.5 g ai/ha; for pest or weed control at 62.5 g/ha / pest or weed control at 250 g/ha: evaluated after 13 days, 100=total damage to plant, 0=no damage to plant; for pest or weed control at 250 g/ha: 250 g ai/ha
Method in brief: as §1

[3] = test system: velvetleaf (Abutilon theophrasti); assay: Test G Post-Emergence Protocol; conditions: Abutilon theophrasti, post-emergence, 312 h, read-out: Velvetleaf damage rating; for pest or weed control at 15.625 g/ha: 15.625 g ai/ha, evaluated after 13 days (100=total damage to plant; 0=no damage to plant); for pest or weed control at 62.5 g/ha: 62.5 g ai/ha; for pest or weed control at 62.5 g/ha / pest or weed control at 250 g/ha: evaluated after 13 days, 100=total damage to plant, 0=no damage to plant; for pest or weed control at 250 g/ha: 250 g ai/ha
Method in brief: as §1

[4] = test system: barnyardgrass (Echinochloa crus-galli); assay: Test G Post-Emergence Protocol; conditions: Echinochloa crus-galli, post-emergence, 312 h, read-out: Barnyardgrass damage rating; for pest or weed control at 15.625 g/ha: 15.625 g ai/ha, evaluated after 13 days (100=total damage to plant; 0=no damage to plant); for pest or weed control at 62.5 g/ha: 62.5 g ai/ha; for pest or weed control at 62.5 g/ha / pest or weed control at 250 g/ha: evaluated after 13 days, 100=total damage to plant, 0=no damage to plant; for pest or weed control at 250 g/ha: 250 g ai/ha
Method in brief: as §1

[5] = test system: redroot pigweed (Amaranthus retroflexus); assay: Test G Post-Emergence Protocol; conditions: Amaranthus retroflexus, post-emergence, 312 h, read-out: Pigweed, Redroot damage rating; for pest or weed control at 15.625 g/ha: 15.625 g ai/ha, evaluated after 13 days (100=total damage to plant; 0=no damage to plant); for pest or weed control at 62.5 g/ha: 62.5 g ai/ha; for pest or weed control at 62.5 g/ha / pest or weed control at 250 g/ha: evaluated after 13 days, 100=total damage to plant, 0=no damage to plant; for pest or weed control at 250 g/ha: 250 g ai/ha
Method in brief: as §1

corn (Zea mays) [6] = assay: Test G Post-Emergence Protocol; conditions: Zea mays, post-emergence, 312 h, read-out: Corn damage rating; for plant injury at 15.625 g/ha: 15.625 g ai/ha, evaluated after 13 days (100=total damage to plant; 0=no damage to plant); for plant injury at 62.5 g/ha: 62.5 g ai/ha; for plant injury at 62.5 g/ha / plant injury at 250 g/ha: evaluated after 13 days, 100=total damage to plant, 0=no damage to plant; for plant injury at 250 g/ha: 250 g ai/ha
Method in brief: as §1

[7] = test system: ivy-leaved morning glory (Ipomoea hederacea); assay: Test G Pre-Emergence Protocol; conditions: Ipomoea, pre-emergence, 312 h, evaluated after 13 days; for pest or weed control at 15.625 g/ha: 15.625 g ai/ha; for pest or weed control at 15.625 g/ha / pest or weed control at 250 g/ha: read-out: Morningglory, Ivy-leaved damage rating (100=total damage to plant; 0=no damage to plant); for pest or weed control at 62.5 g/ha: 62.5 g ai/ha, 100=total damage to plant, 0=no damage to plant, read-out: Morningglory, Ivy-leaved damage rating; for pest or weed control at 250 g/ha: 250 g ai/ha
Method in brief: (§2)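 Pots of seeds in standard soil were grown for one day in a glasshouse (24/16 °C day/night, 14 h light, 65% humidity), then sprayed with compound in acetone/water 50:50 with 0.5% Tween 20 at 15.625, 62.5 or 250 g/ha. Damage was scored after 13 days on a 0 (none) to 100 (total) scale.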

[8] = test system: giant foxtail (Setaria faberi); assay: Test G Pre-Emergence Protocol; conditions: Setaria faberi, pre-emergence, 312 h, evaluated after 13 days; for pest or weed control at 15.625 g/ha: 15.625 g ai/ha; for pest or weed control at 15.625 g/ha / pest or weed control at 250 g/ha: read-out: Foxtail, Giant damage rating (100=total damage to plant; 0=no damage to plant); for pest or weed control at 62.5 g/ha: 62.5 g ai/ha, 100=total damage to plant, 0=no damage to plant, read-out: Foxtail, Giant damage rating; for pest or weed control at 250 g/ha: 250 g ai/ha
Method in brief: as §2

[9] = test system: velvetleaf (Abutilon theophrasti); assay: Test G Pre-Emergence Protocol; conditions: Abutilon theophrasti, pre-emergence, 312 h, evaluated after 13 days; for pest or weed control at 15.625 g/ha: 15.625 g ai/ha; for pest or weed control at 15.625 g/ha / pest or weed control at 250 g/ha: read-out: Velvetleaf damage rating (100=total damage to plant; 0=no damage to plant); for pest or weed control at 62.5 g/ha: 62.5 g ai/ha, 100=total damage to plant, 0=no damage to plant, read-out: Velvetleaf damage rating; for pest or weed control at 250 g/ha: 250 g ai/ha
Method in brief: as §2

[10] = test system: barnyardgrass (Echinochloa crus-galli); assay: Test G Pre-Emergence Protocol; conditions: Echinochloa crus-galli, pre-emergence, 312 h, evaluated after 13 days; for pest or weed control at 15.625 g/ha: 15.625 g ai/ha; for pest or weed control at 15.625 g/ha / pest or weed control at 250 g/ha: read-out: Barnyardgrass damage rating (100=total damage to plant; 0=no damage to plant); for pest or weed control at 62.5 g/ha: 62.5 g ai/ha, 100=total damage to plant, 0=no damage to plant, read-out: Barnyardgrass damage rating; for pest or weed control at 250 g/ha: 250 g ai/ha
Method in brief: as §2

[11] = test system: redroot pigweed (Amaranthus retroflexus); assay: Test G Pre-Emergence Protocol; conditions: Amaranthus retroflexus, pre-emergence, 312 h, evaluated after 13 days; for pest or weed control at 15.625 g/ha: 15.625 g ai/ha; for pest or weed control at 15.625 g/ha / pest or weed control at 250 g/ha: read-out: Pigweed, Redroot damage rating (100=total damage to plant; 0=no damage to plant); for pest or weed control at 62.5 g/ha: 62.5 g ai/ha, 100=total damage to plant, 0=no damage to plant, read-out: Pigweed, Redroot damage rating; for pest or weed control at 250 g/ha: 250 g ai/ha
Method in brief: as §2

corn (Zea mays) [12] = assay: Test G Pre-Emergence Protocol; conditions: Zea mays, pre-emergence, 312 h, evaluated after 13 days; for plant injury at 15.625 g/ha: 15.625 g ai/ha; for plant injury at 15.625 g/ha / plant injury at 250 g/ha: read-out: Corn damage rating (100=total damage to plant; 0=no damage to plant); for plant injury at 62.5 g/ha: 62.5 g ai/ha, 100=total damage to plant, 0=no damage to plant, read-out: Corn damage rating; for plant injury at 250 g/ha: 250 g ai/ha
Method in brief: as §2

| SMILES | pest or weed control at 15.625 g/ha [1] [%] | pest or weed control at 62.5 g/ha [1] [%] | pest or weed control at 250 g/ha [1] [%] | pest or weed control at 15.625 g/ha [2] [%] | pest or weed control at 62.5 g/ha [2] [%] | pest or weed control at 250 g/ha [2] [%] | pest or weed control at 15.625 g/ha [3] [%] | pest or weed control at 62.5 g/ha [3] [%] | pest or weed control at 250 g/ha [3] [%] | pest or weed control at 15.625 g/ha [4] [%] | pest or weed control at 62.5 g/ha [4] [%] | pest or weed control at 250 g/ha [4] [%] | pest or weed control at 15.625 g/ha [5] [%] | pest or weed control at 62.5 g/ha [5] [%] | pest or weed control at 250 g/ha [5] [%] | plant injury at 15.625 g/ha (corn (Zea mays) [6]) [%] | plant injury at 62.5 g/ha (corn (Zea mays) [6]) [%] | plant injury at 250 g/ha (corn (Zea mays) [6]) [%] | pest or weed control at 15.625 g/ha [7] [%] | pest or weed control at 62.5 g/ha [7] [%] | further results |
| --- | --- | --- | --- | --- | --- | --- | --- | --- | --- | --- | --- | --- | --- | --- | --- | --- | --- | --- | --- | --- | --- |
| COCCOc1cc([C@@H]2CN(C)C(=O)[C@H]2C(=O)Nc2cccc(F)c2C)ccc1C (racemic) [Compound 1790] | 20 | 20 | 40 | 70 | 80 | 80 | 0 | 20 | 30 | 50 | 70 | 70 | 0 | 0 | 0 | 50 | 70 | 80 | 0 | 20 | pest or weed control at 250 g/ha [7]: 70%; pest or weed control at 15.625 g/ha [8]: 70%; pest or weed control at 62.5 g/ha [8]: 70%; pest or weed control at 250 g/ha [8]: 90%; pest or weed control at 15.625 g/ha [9]: 0%; pest or weed control at 62.5 g/ha [9]: 0%; pest or weed control at 250 g/ha [9]: 40%; pest or weed control at 15.625 g/ha [10]: 40%; pest or weed control at 62.5 g/ha [10]: 70%; pest or weed control at 250 g/ha [10]: 90%; pest or weed control at 15.625 g/ha [11]: 0%; pest or weed control at 62.5 g/ha [11]: 0%; pest or weed control at 250 g/ha [11]: 10%; plant injury at 15.625 g/ha (corn (Zea mays) [12]): 20%; plant injury at 62.5 g/ha (corn (Zea mays) [12]): 70%; plant injury at 250 g/ha (corn (Zea mays) [12]): 90% |
| CN1C[C@H](c2ccc(Cl)cc2)[C@@H](C(=O)Nc2cccnc2F)C1=O [Compound 1810] | 20 | 60 | 20 | 20 | 80 | 80 | 20 | 30 | 40 | 0 | 60 | 80 | 0 | 10 | 60 | 0 | 0 | 50 | 0 | 30 | pest or weed control at 250 g/ha [7]: 70%; pest or weed control at 15.625 g/ha [8]: 80%; pest or weed control at 62.5 g/ha [8]: 90%; pest or weed control at 250 g/ha [8]: 90%; pest or weed control at 15.625 g/ha [9]: 0%; pest or weed control at 62.5 g/ha [9]: 40%; pest or weed control at 250 g/ha [9]: 70%; pest or weed control at 15.625 g/ha [10]: 60%; pest or weed control at 62.5 g/ha [10]: 90%; pest or weed control at 250 g/ha [10]: 90%; pest or weed control at 15.625 g/ha [11]: 0%; pest or weed control at 62.5 g/ha [11]: 40%; pest or weed control at 250 g/ha [11]: 80%; plant injury at 15.625 g/ha (corn (Zea mays) [12]): 20%; plant injury at 62.5 g/ha (corn (Zea mays) [12]): 30%; plant injury at 250 g/ha (corn (Zea mays) [12]): 90% |
| Cc1c(F)cccc1NC(=O)[C@@H]1C(=O)N(C)C[C@H]1c1ccc2nonc2c1 (racemic) [Compound 1818] | 0 | 10 | 40 | 40 | 80 | 80 | 0 | 0 | 30 | 0 | 30 | 80 | 0 | 0 | 0 | 0 | 30 | 60 | 0 | 10 | pest or weed control at 250 g/ha [7]: 40%; pest or weed control at 15.625 g/ha [8]: 70%; pest or weed control at 62.5 g/ha [8]: 90%; pest or weed control at 250 g/ha [8]: 90%; pest or weed control at 15.625 g/ha [9]: 0%; pest or weed control at 62.5 g/ha [9]: 30%; pest or weed control at 250 g/ha [9]: 70%; pest or weed control at 15.625 g/ha [10]: 30%; pest or weed control at 62.5 g/ha [10]: 30%; pest or weed control at 250 g/ha [10]: 90%; pest or weed control at 15.625 g/ha [11]: 0%; pest or weed control at 62.5 g/ha [11]: 0%; pest or weed control at 250 g/ha [11]: 40%; plant injury at 15.625 g/ha (corn (Zea mays) [12]): 0%; plant injury at 62.5 g/ha (corn (Zea mays) [12]): 0%; plant injury at 250 g/ha (corn (Zea mays) [12]): 70% |
